One series concerns HCMV. Kind of series: HCMV plaque (focus) reduction assay in HFF cells. The format is cell-based, human cytomegalovirus (Towne strain). To be noted: in words. How it is done: The 148 strain of HSV-1 was used in most experiments and was provided by Dr. T. W. Schafer of Schering Corporation. The HF strain of HSV-1 was used in selected experiments and was obtained from Dr. G. H. Cohen, University of Pennsylvania. The Towne strain, plaque-purified isolate Po, of HCMV was a gift of Dr. Mark Stinski, University of Iowa.
Stock HCMV was prepared by infecting HFF cells at a multiplicity of infection (m.o.i.) of less than 0.01 plaque-forming units (p.f.u.) per cell. Cell growth medium was changed every four days until cytopathology was evident in all cells (approximately 21 days). Supernatant fluids were retained as the virus stock. Four days later, the remaining cells were disrupted by three cycles of freeze-thawing and the cell plus medium held as an additional source of virus. Storage was in liquid nitrogen.
HCMV was titered in 24-well cluster dishes which were planted to contain 5×10^4 HFF cells/well, grown as described above. When the cells were 70 to 80% confluent, 0.2 ml of the virus suspension was added per wall and adsorbed as described above. At least three ten-fold dilutions of each preparation were used. Following virus adsorption, the cell sheets were overlayed with 0.5% methocel (4000 CPS) in maintenance medium [(MEM) with 1.1 gm/liter NaHCO3, 100 units/ml penicillin G, 100 μg/ml streptomycin, and 5% fetal bovine serum]. The cultures were incubated in a humidified atmosphere of 4% CO2 -96% air. Viral foci were visible 5 to 7 days after infection using at least 10-fold magnification. Cells were fixed and stained by a 10-minute exposure to a 0.1% solution of crystal violet in 20% methanol 7 to 12 days after infection. Microscopic foci were enumerated at 20-fold magnification using a Nikon Profile Projector.
The effect of compounds of the replication of HCMV has been measured using both a plaque (focus) reduction assay and a titer (yield) reduction assay. For the former, HFF cells in 24-well culture dishes were infected with approximately 50 p.f.u. of HCMV per well using the procedures detailed above. Compounds dissolved in growth medium were added in three to six selected concentrations to triplicate wells following virus adsorption. Following incubation at 37° C. for 7 to 10 days, cell sheets were fixed, stained and microscopic foci were enumerated as described above. Drug effects were calculated as a percentage of reduction in number of foci in the presence of each drug concentration compared to the number observed in the absence of drug. DHPG (ganciclovir) was used as a positive control in all experiments.
Dose-response relationships were used to compare drug effects. These were constructed by linearly regressing the percent inhibition of parameters derived in the preceding sections against log drug concentrations. The 50% inhibitory (I50) concentrations were calculated from the regression lines using the methods described by Goldstein. See Goldstein, A., Biostatistics: An Introductory Text, MacMillan, N.Y., 1964, pp. 156-161. Along with the I50 concentration for visual cytotoxicity, the averaged I50 concentrations are compared to I50 concentrations for inhibition for HCMV or HSV-1 replication. Compounds for which the ratio of cytotoxicity I50 concentrations to antiviral I50 concentrations (in vitro therapeutic index) were greater than 10, were considered for further study.

The nature of series [1]: Visual cytotoxicity in BSC-1 cells. The format is cell-based, African green monkey. To be noted: monkey, visual cytotoxicity at time of HSV-1 plaque enumeration, read-out: 50% Inhibitory Concentration, Cytotoxicity BSC. An excerpt: Cytotoxicity produced in HFF and BSC-1 cells was estimated by visual scoring of cells not affected by virus infection in the HCMV and HSV-1 plaque reduction assays. Cytopathology was estimated at 35- and 60-fold magnification and scored on a zero to four plus basis. Wells were scored on the day of staining.

In another series the test system is MCMV. Kind of series: Mortality of mice infected with murine cytomegalovirus. The format is in vivo. How it is done:
Compound UMJD 183 was tested in mice infected with murine cytomegalovirus (MCMV). This animal model has been recognized as having capabilities predictive of efficacy in humans.
Compound UMJD 183 and the drug ganciclovir (DHPG) were administered to groups of 15 mice each at doses and times of administration shown in Table 3. Each compound at all doses was administered intraperitoneally twice daily for five days beginning at either 6, 24 or 48 hours after virus inoculation. Animals were observed daily and the number dying each day recorded.
^a Animlas were treated i.p. twice daily for 5 days with the doses
stated above. Treatment was initiated at the times indicated following

The next series deals with HCMV DNA synthesis. Description: HCMV DNA synthesis by dot-blot hybridization. The format is cell-based, human cytomegalovirus. Particulars: Human betaherpesvirus 5; Table 2; read-out: 50% Inhibitory Concentration, HCMV DNA Synthesis. How it is done:
The amount of HCMV DNA synthesis was determined in two types of experiments: (a) as an integral part of HCMV titer (yield) reduction experiments and (b) as separate experiments to determine only the amount of viral DNA synthesis in the absence or presence of test compounds.
HFF cells were planted in 25 cm^2 flasks and infected with HCMV as described in part 2 and incubated at 37° C. Before harvesting at selected times by the addition of 0.1 volume of 0.2M EDTA, an aliquot of medium was removed for determination of HCMV titer. After harvesting cells into the medium, aliquots were retained for determination of HCMV DNA by hybridization.
HFF cells were planted in 96-well cluster plates at 20,000 cell/well in 200 μl of growth medium [MEM(E)] with 1.1 gm/liter NaHCO3 and 10% fetal bovine serum. […]
Following hybridization, the membrane was washed sequentially in 100 ml 2×SSC at room temperature twice each for 5 minutes, 100 ml 2×SCC plus 1% SDS at 65° C. twice each for 30 minutes and then 100 ml 0.1×SSC at room temperature twice each for 30 minute. The membrane was dried at room temperature and each filtration spot was cut from the membrane and placed into 4 ml of toluene/DPO scintillant and hybridized label counted in a liquid scintillation spectrometer.

[2] abbreviates: 0.6 mg/kg i.p. twice daily, from 6 h.
The mark [3] stands for this setting: 0.6 mg/kg i.p. twice daily, from 24 h.
[4] abbreviates: 0.6 mg/kg i.p. twice daily, from 48 h.
Setting [5] is: 1.9 mg/kg i.p. twice daily, from 6 h.
Setting [6] is: 1.9 mg/kg i.p. twice daily, from 24 h.
[7] abbreviates: 1.9 mg/kg i.p. twice daily, from 48 h.
[8] abbreviates: 5.6 mg/kg i.p. twice daily, from 6 h.
Where [9] appears, read: 5.6 mg/kg i.p. twice daily, from 24 h.
[10] abbreviates: 5.6 mg/kg i.p. twice daily, from 48 h.
Where [11] appears, read: 16.7 mg/kg i.p. twice daily, from 6 h.
Setting [12] is: 16.7 mg/kg i.p. twice daily, from 24 h.
The mark [13] stands for this setting: 16.7 mg/kg i.p. twice daily, from 48 h.

The results in this text go back to USRE36187E, “Acyclic pyrrolo [2,3-d]pyrimidine analogs as antiviral agents” (The Regents of the University of Michigan, priority 1994, dated 1999).

Molecules are shown by their SMILES. Some results are limits rather than exact numbers.

As to `Nc1nc2c(ncn2COCCO)c(=O)[nH]1` [Acyclovir, reference compound], the “activity against HCMV” value with HCMV is recorded as “only modest activity against HCMV”. Besides, the CC50 in series [1] is over 100 µM.

In the case of `Nc1nc(O)c2ncn(COC(CO)CO)c2n1` [Ganciclovir (DHPG), reference compound], the “MDD (Mean Day of Death)” value in the series with MCMV (setting [2]) is 4.6; in the series with MCMV (setting [3]), 5.4; in the series with MCMV (setting [4]), 5.3; in the series on MCMV (setting [5]), 5.4; with MCMV (setting [6]), 4.9; with MCMV (setting [7]), 4.9. Moreover, the “MDD (Mean Day of Death)” value was 4.2 in the series on MCMV (setting [8]); 5.3 with MCMV (setting [9]); 5.5 with MCMV (setting [10]); 3.8 in the series on MCMV (setting [11]); 5.3 with MCMV (setting [12]); 5.5 in the series on MCMV (setting [13]). Further, the “Mortality Percent” value with MCMV (setting [2]) is listed as 93%; in the series with MCMV (setting [3]), 80%; with MCMV (setting [4]), 93%; with MCMV (setting [5]), 33%; in the series with MCMV (setting [6]) it was 80%; in the series on MCMV (setting [7]), 73%. Further, the “Mortality Percent” value with MCMV (setting [8]) came to 33%; in the series with MCMV (setting [9]), 47%; in the series with MCMV (setting [10]) it was 67%; with MCMV (setting [11]), 27%; in the series with MCMV (setting [12]) it was 47%; in the series with MCMV (setting [13]) it was 53%. Besides, in series [1], the CC50 was over 100 µM. Also, the IC50 in the series on HCMV DNA synthesis is 1.2 µM.
